Tests used:
296 kinases = experiment: Kinase profile of 296 kinases (Reaction Biology Corporation); assay type: biochemical; settings: result in words
endogenous Wee1 = experiment: Western blot of endogenous Wee1; assay type: cell-based; settings: result in words
Method: The percentage of signal relative to the proteasome inhibitor MG132 is shown. […] A Western blot is shown of endogenous Wee1 or Skp1 (loading control) of HeLa cells incubated with 5 μM of indicated compounds for 24 hours. […] The 0 time point was set to 100%. […] The extent of degradation was measured as in FIG. D.

Question: Which “selectivity among 296 kinases” value (296 kinases) does the source give for `c1ccc2[nH]c(CNc3nc(N4CCOCC4)nc4c3ncn4-c3ccsc3)nc2c1` [SR-653234] here?
Answer: highly selective for casein kinase

Question: And the “steady-state levels of endogenous Wee1” value (endogenous Wee1)?
Answer: increased the steady-state levels of endogenous Wee1

From patent publication US9493464B2, “Wee1 degradation inhibitors” (The Scripps Research Institute, priority 2012, dated 2016)
